From patent US11672802B2, “Induction of immune tolerance by using methotrexate” (Genzyme Corporation, priority 2011, dated 2023) come the findings set out here.

SMILES strings stand for the structures.

In assay [1] the test system is anti-rhGAA antibody titers. The assay is described as follows: Adoptive transfer of splenic B cells from tolerized mice. Format: in vivo, C57BL/6 mice. Particulars: donors treated with Myozyme and a single cycle of methotrexate. The procedure:
C57BL/6 mice were obtained from Jackson Laboratories and were housed under specific pathogen free conditions. Control mice were given a single intravenous injection of rhGAA at 20 mg/kg. Tolerized mice were given a single intravenous injection of rhGAA at 20 mg/kg, in addition to three daily consecutive methotrexate intraperitoneal injections of 0.5 mg. Spleens were harvested on day six after the initial rhGAA injection, from both donor groups, and processed into pooled single cell suspensions. Cells were washed and filtered through a […]. Cells were then enriched for B cells using a StemCell Technologies RoboSep cell separation system, and resuspended to allow for a 200 μl intravenous injection. Tolerized and non-tolerized recipient groups received either a high cell 10×10^6 or a low cell 5×10^6 concentration via intravenous injections. Control groups were given rhGAA only, or rhGAA and methotrexate (single cycle of three consecutive daily MTX injections). All groups received weekly intravenous rhGAA 20 mg/kg injections, and were retro-orbitally bled biweekly for 16 weeks, into BD Vacutainer serum separator tubes. Serum was removed and stored below −20° C. until used for ELISA. Anti-rhGAA antibody titers were determined using ELISA, read on a SpectraMax M2, and calculated using Softmax to extrapolate titer value. […]

The test system of assay [2] is anti-rhGAA IgG. Nature of the assay: Anti-rhGAA IgG ELISA titers in mice treated with rhGAA. Format: in vivo. To be noted: for anti-rhGAA titers: IL-10 knockout animals, rhGAA and methotrexate. The protocol:
Recombinant human alglucosidase alfa (rhGAA, marketed by Genzyme Corp. as Myozyme®) was used as a formulated drug product. Mice were treated weekly with 20 mg/kg of rhGAA by bolus tail vein injection unless stated differently. All mice were treated prophylactically with 5 to 30 mg/kg diphenhydramine (Baxter Healthcare Corporation, Deerfield, Ill.) intraperitoneally prior to rhGAA administration. Control animals were treated intravenously with either sterile 0.9% saline or rhGAA-formulation buffer. Methotrexate treatment
Mice were bled 4-6 days following rhGAA treatment and specific IgG was measured by ELISA. […] Endpoint titers were defined as the reciprocal of the sample dilution resulting in an absorbance value of 0.2 using Softmax software (Molecular Devices, Sunnyvale, Calif.).
C57Bl/6 mice were treated with one 20 mg/kg intravenous dose of rhGAA (Genzyme Corporation), 3 consecutive intraperitoneal doses of 5 mg/kg methotrexate (APP Pharmaceuticals, LLC), and either 1D11 or 13C4 at 5 mg/kg (Genzyme Corporation) for 3 doses every other day. Methotrexate, 1D11, and 13C4 treatment commenced with rhGAA injections. Spleens were collected 7 days after treatment initiation and were processed as described above for B cells, culture and flow analysis. Additionally, rhGAA titer data was obtained by treating animals as described above, with rhGAA dosed weekly over 12 weeks, methotrexate dosed for either 1 or 3 cycles, and 1D11 or 13C4 dosed 3 times a week every other day for 12 weeks. Serum samples were collected every 2 weeks for ELISA analysis.
A general note: An ELISA detects its analyte on a solid surface through an enzyme-linked reagent.

`CN(Cc1cnc2nc(N)nc(N)c2n1)c1ccc(C(=O)N[C@@H](CCC(=O)O)C(=O)O)cc1` [methotrexate, Methotrexate]: the “transfer of immune tolerance to Myozyme in naive hosts by total splenic B cells” value in assay [1] was “could transfer immune tolerance”. In addition, the anti-rhGAA responses result in assay [2] (C57BL/6 wild-type, rhGAA and three cycles methotrexate, weeks 4, 6 and 9) is “decreased”. Moreover, the anti-rhGAA titers result is reported as “slight decrease” in assay [2] (week 9); “not decreased” in assay [2] (weeks 4 and 6). In assay [2] (single cycle of three daily doses of 5 mg/kg methotrexate at week 1), the “duration of control of anti-rhGAA responses” value is “at least 20 weeks”. The “animals exhibiting high anti-rhGAA titers” value in assay [2] (week 6, rhGAA alone, rhGAA + methotrexate, or with 5 mg/kg 1D11 or 13C4) was “none”.
